The results in this text go back to ChEMBL document CHEMBL1126271, “Benzazepinone calcium channel blockers. 5. Effects on antihypertensive activity associated with N1 and aromatic substituents” (J Med Chem, 1992).

Holding throughout (type): functional
Assay [1] deals with Rattus norvegicus. Briefly: Antihypertensive activity 0-6 hr after 135 umol/kg p.o. in rats.
Assay [2] concerns Rattus norvegicus. Briefly: Antihypertensive activity 6-12h after 135 umol/kg p.o. in rats.
The species entered for the next assay is Oryctolagus cuniculus. Briefly: In vitro vasorelaxant activity in circumferential strips of potassium-depolarized rabbit aorta.
Assay [3] deals with Rattus norvegicus. Briefly: Antihypertensive activity 12-18 hr after 135 umol/kg p.o. in rats.
Assay [4] is filed under the species Rattus norvegicus. Briefly: Extent of hydrolysis of C3 acetyl group of 0.4 mM of compound 5 min after exposure by rat liver homogenate.
The species entered for assay [5] is Rattus norvegicus. Briefly: Extent of hydrolysis of C3 acetyl group of 0.4 mM of compound 30 min after exposure by rat liver homogenate.

In the case of `COc1ccc(C2Cc3c(Cl)cccc3N(CCN(C)C)C(=O)C2OC(C)=O)cc1` (racemic), the “Decrease in blood pressure” value with Rattus norvegicus [1] is on record as 10%.
Consider `COc1ccc(C2Sc3cc(OC)ccc3N(CCN(C)C)C(=O)C2OC(C)=O)cc1` (racemic), for which the “Decrease in blood pressure” value in the assay on Rattus norvegicus [2] was 21%; with Rattus norvegicus [1], 34%; with Rattus norvegicus [3], 19%. This compound registered an IC50 in the assay listed under Oryctolagus cuniculus of 130 nM.
As to `COc1ccc([C@@H]2Sc3ccccc3N(C[C@@H]3CCCN3)C(=O)[C@@H]2OC(C)=O)cc1`, the “Decrease in blood pressure” value in the assay on Rattus norvegicus [2] turned out to be 8%; with Rattus norvegicus [1] it was 18%; in the assay with Rattus norvegicus [3], 10%. For the same compound, the figures for the Hydrolysis in the assay filed under Rattus norvegicus [4] and in the assay filed under Rattus norvegicus [5] were 32% and 57%, respectively. In the assay listed under Oryctolagus cuniculus, this compound had a half-maximal inhibitory concentration (IC50) of 340 nM.
Take `COc1ccc([C@@H]2Cc3cc(OC)ccc3N(C[C@@H]3CCCN3)C(=O)[C@@H]2O)cc1`: the “Decrease in blood pressure” value was determined as 19% in the assay with Rattus norvegicus [2], 18% in the assay on Rattus norvegicus [1] and 18% in the assay with Rattus norvegicus [3]. Also, inhibition in the assay listed under Oryctolagus cuniculus was half-maximal at 1120 nM (IC50).
As for `COc1ccc([C@@H]2Cc3cc(C(F)(F)F)ccc3N(CCN(C)C)C(=O)[C@@H]2OC(C)=O)cc1`, the “Decrease in blood pressure” value in the assay with Rattus norvegicus [1] came out at 19%.
As to `COc1ccc([C@@H]2Cc3c(cccc3C(F)(F)F)N(C[C@@H]3CCCN3)C(=O)[C@@H]2O)cc1`, the entries for the “Decrease in blood pressure” value with Rattus norvegicus [2], in the assay on Rattus norvegicus [1] and with Rattus norvegicus [3] were 21%, 32% and 21%, respectively. The IC50 in the assay filed under Oryctolagus cuniculus turned out to be 100 nM.
Regarding `COc1ccc([C@@H]2Cc3ccccc3N(CCN(C)C)C(=O)[C@@H]2OC(C)=O)cc1`, the Hydrolysis turned out to be 18% in the assay filed under Rattus norvegicus [4] and 53% in the assay filed under Rattus norvegicus [5]. In the assay listed under Oryctolagus cuniculus, this compound showed an IC50 of 2990 nM. Further, the “Decrease in blood pressure” value in the assay on Rattus norvegicus [3] turned out to be 13%.
In the case of `COc1ccc([C@@H]2Cc3c(Cl)cccc3N(C[C@@H]3CCCN3)C(=O)[C@@H]2O)cc1`, the “Decrease in blood pressure” value with Rattus norvegicus [2] is 15%; in the assay on Rattus norvegicus [1], 19%; with Rattus norvegicus [3] it was 13%. This compound also gave an IC50 in the assay listed under Oryctolagus cuniculus of 130 nM.
Taken in the same sequence, the figures for `COc1ccc([C@@H]2Sc3cc(OC)ccc3N(C[C@@H]3CCCN3)C(=O)[C@@H]2O)cc1` were 33%, 32%, 23% and 370 nM.
For `COc1ccc([C@@H]2Cc3cc(OC)ccc3N(C[C@@H]3CCCN3)C(=O)[C@@H]2OC(C)=O)cc1`, the “Decrease in blood pressure” value in the assay with Rattus norvegicus [2] was 33%; in the assay on Rattus norvegicus [1], 39%; in the assay with Rattus norvegicus [3] it was 31%. Besides, the Hydrolysis in the assay filed under Rattus norvegicus [4] and in the assay listed under Rattus norvegicus [5] was 3% each time. Moreover, half-maximal inhibition in the assay filed under Oryctolagus cuniculus (IC50) required 230 nM.
For the compound `COc1ccc(C2Cc3cc(C(F)(F)F)ccc3N(CCN(C)C)C(=O)C2OC(C)=O)cc1` (stereo unspecified), the 50% inhibitory concentration (IC50) in the assay listed under Oryctolagus cuniculus turned out to be 1900 nM.
Regarding `COc1ccc([C@@H]2Cc3cc(Cl)ccc3N(CCN(C)C)C(=O)[C@@H]2OC(C)=O)cc1`, the “Decrease in blood pressure” value in the assay on Rattus norvegicus [2], in the assay with Rattus norvegicus [1] and in the assay with Rattus norvegicus [3] was 12% each time.
Consider `COc1ccc([C@@H]2Sc3cc(OC)ccc3N(C[C@@H]3CCCN3)C(=O)[C@@H]2OC(C)=O)cc1`, for which the “Decrease in blood pressure” value with Rattus norvegicus [2] worked out at 39%; in the assay with Rattus norvegicus [1] it was 42%; in the assay on Rattus norvegicus [3], 37%. Moreover, the values for the Hydrolysis in the assay filed under Rattus norvegicus [4] and in the assay filed under Rattus norvegicus [5] were 3% and 7%, respectively. Moreover, the IC50 in the assay listed under Oryctolagus cuniculus was 120 nM.
With `COc1ccc([C@@H]2Cc3c(cccc3C(F)(F)F)N(C[C@@H]3CCCN3)C(=O)[C@@H]2OC(C)=O)cc1`, the Hydrolysis in the assay filed under Rattus norvegicus [4] and in the assay filed under Rattus norvegicus [5] was 0% each time. Moreover, the “Decrease in blood pressure” value with Rattus norvegicus [1] worked out at 44%; in the assay with Rattus norvegicus [3], 38%.
As to `COc1ccc([C@@H]2Sc3ccccc3N(C[C@@H]3CCCN3)C(=O)[C@@H]2O)cc1`, the “Decrease in blood pressure” value in the assay with Rattus norvegicus [2] amounted to 10%; in the assay with Rattus norvegicus [1], 10%; with Rattus norvegicus [3], 9%. The compound also returned a half-inhibitory concentration (IC50) in the assay listed under Oryctolagus cuniculus of 1320 nM.
On to `COc1ccc([C@@H]2Cc3c(cccc3C(F)(F)F)N(CCN(C)C)C(=O)[C@@H]2OC(C)=O)cc1`, for which the “Decrease in blood pressure” value with Rattus norvegicus [2], in the assay with Rattus norvegicus [1] and in the assay on Rattus norvegicus [3] was 29% throughout. Also, the values for the Hydrolysis in the assay listed under Rattus norvegicus [4] and in the assay listed under Rattus norvegicus [5] were 0% and 2%, respectively.
Consider `COc1ccc([C@@H]2Sc3ccccc3N(CCN(C)C)C(=O)[C@@H]2OC(C)=O)cc1` [DILTIAZEM], for which the Hydrolysis was 68% in the assay listed under Rattus norvegicus [4] and 100% in the assay listed under Rattus norvegicus [5]. Besides, the “Decrease in blood pressure” value in the assay with Rattus norvegicus [1] was 20%; in the assay on Rattus norvegicus [3], 19%.
With `COc1ccc([C@@H]2Cc3c(Cl)cccc3N(C[C@@H]3CCCN3)C(=O)[C@@H]2OC(C)=O)cc1`, the “Decrease in blood pressure” value worked out at 17% in the assay on Rattus norvegicus [2], 18% in the assay with Rattus norvegicus [1] and 20% in the assay with Rattus norvegicus [3]. Besides, the figures for the Hydrolysis in the assay listed under Rattus norvegicus [4] and in the assay listed under Rattus norvegicus [5] were 7% and 17%, respectively. In the assay filed under Oryctolagus cuniculus, this compound came in with an IC50 of 120 nM.
